In US12559492B2, “BRAF degraders” (C4 Therapeutics, Inc., priority 2020, dated 2026):

Target: BRAF^V600E protein (Homo sapiens, UniProt P15056, V600E)
Test: HiBiT cellular BRAF V600E degradation assay
Format: cell-based
Details: 24 h incubation; for DC50: A375.10 cells (HiBiT tag knocked in at N-terminal of BRAF V600E), concentration at which 50% of total cellular BRAF V600E is degraded; for Emax: A375.10 cells, Emax = amount of residual protein remaining in the cell after compound treatment, read-out: HiBit 24 h Emax

Chain of BRAF^V600E protein (P15056 whole entry V600E): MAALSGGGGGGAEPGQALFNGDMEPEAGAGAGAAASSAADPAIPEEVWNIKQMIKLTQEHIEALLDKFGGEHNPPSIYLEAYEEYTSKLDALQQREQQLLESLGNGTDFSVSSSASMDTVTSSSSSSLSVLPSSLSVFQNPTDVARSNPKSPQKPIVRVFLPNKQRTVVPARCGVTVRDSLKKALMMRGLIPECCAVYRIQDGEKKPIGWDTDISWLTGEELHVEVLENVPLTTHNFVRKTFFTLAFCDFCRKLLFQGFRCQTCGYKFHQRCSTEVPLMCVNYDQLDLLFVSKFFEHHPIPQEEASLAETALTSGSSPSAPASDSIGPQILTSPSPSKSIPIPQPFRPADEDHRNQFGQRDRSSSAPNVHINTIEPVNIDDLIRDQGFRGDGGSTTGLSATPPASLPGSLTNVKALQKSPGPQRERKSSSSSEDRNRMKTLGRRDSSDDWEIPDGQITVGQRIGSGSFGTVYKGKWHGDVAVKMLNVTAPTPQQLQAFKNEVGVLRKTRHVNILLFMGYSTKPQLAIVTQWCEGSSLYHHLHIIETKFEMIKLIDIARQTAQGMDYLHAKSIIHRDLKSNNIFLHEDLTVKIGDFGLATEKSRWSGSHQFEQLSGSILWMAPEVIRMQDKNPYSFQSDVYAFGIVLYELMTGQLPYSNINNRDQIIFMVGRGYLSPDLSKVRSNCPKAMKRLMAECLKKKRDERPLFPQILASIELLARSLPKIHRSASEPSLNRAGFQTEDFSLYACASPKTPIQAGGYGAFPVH

Compound	DC50 [nM]	Emax [%]
CCN(C)S(=O)(=O)Nc1ccc(F)c(C(=O)c2c[nH]c3ncc(-c4ccc(N5CCN(C(=O)CC6(O)CCN(c7ccc(NC8CCC(=O)NC8=O)cc7F)CC6)CC5)cc4F)cc23)c1F (stereo not shown) [Example 210, 5-[4-[4-[2-[1-[4-[(2,6-dioxo-3-piperidyl)amino]-2-fluoro-phenyl]-4-hydroxy-4-piperidyl]acetyl]piperazin-1-yl]-2-fluoro-phenyl]-3-[3-[[ethyl(methyl)sulfamoyl]amino]-2,6-difluoro-benzoyl]-1H-pyrrolo[2,3-b]pyridine]	7.69	7.6
CCN(C)S(=O)(=O)Nc1ccc(F)c(C(=O)c2c[nH]c3ncc(-c4ccc(N5CCN(C(=O)CC6(O)CCN(c7ccc(NC8CCC(=O)NC8=O)cc7F)CC6)CC5)c(C(F)(F)F)c4)cc23)c1F (stereo not shown) [Example 212, 5-[4-[4-[2-[1-[4-[(2,6-dioxo-3-piperidyl)amino]-2-fluoro-phenyl]-4-hydroxy-4-piperidyl]acetyl]piperazin-1-yl]-3-(trifluoromethyl)phenyl]-3-[3-[[ethyl(methyl)sulfamoyl]amino]-2,6-difluoro-benzoyl]-1H-pyrrolo[2,3-b]pyridine]	32.8	7.02
CCN(C)S(=O)(=O)Nc1ccc(F)c(C(=O)c2c[nH]c3ncc(-c4cnc(N5CCN(C(=O)CC6(O)CCN(c7ccc(N8CCC(=O)NC8=O)cc7Cl)CC6)CC5)nc4)cc23)c1F [Example 213, 5-[2-[4-[2-[1-[2-chloro-4-(2,4-dioxohexahydropyrimidin-1-yl)phenyl]-4-hydroxy-4-piperidyl]acetyl]piperazin-1-yl]pyrimidin-5-yl]-3-[3-[[ethyl(methyl)sulfamoyl]amino]-2,6-difluoro-benzoyl]-1H-pyrrolo[2,3-b]pyridine]	0.42	6.06
CCN(C)S(=O)(=O)Nc1ccc(F)c(C(=O)c2c[nH]c3ncc(-c4ccc(N5CCN(C(=O)CC6(O)CCN(c7cc(F)c(N8CCC(=O)NC8=O)cc7F)CC6)CC5)nc4)cc23)c1F [Example 220, 5-[6-[4-[2-[1-[4-(2,4-dioxohexahydropyrimidin-1-yl)-2,5-difluoro-phenyl]-4-hydroxy-4-piperidyl]acetyl]piperazin-1-yl]-3-pyridyl]-3-[3-[[ethyl(methyl)sulfamoyl]amino]-2,6-difluoro-benzoyl]-1H-pyrrolo[2,3-b]pyridine]	1.45	7.62
CCN(C)S(=O)(=O)Nc1ccc(F)c(C(=O)c2c[nH]c3ncc(-c4cc(F)c(N5CCN(C(=O)CC6(O)CCN(c7ccc(NC8CCC(=O)NC8=O)cc7F)CC6)CC5)cc4F)cc23)c1F (stereo not shown) [Example 221, 5-[4-[4-[2-[1-[4-[(2,6-dioxo-3-piperidyl)amino]-2-fluoro-phenyl]-4-hydroxy-4-piperidyl]acetyl]piperazin-1-yl]-2,5-difluoro-phenyl]-3-[3-[[ethyl(methyl)sulfamoyl]amino]-2,6-difluoro-benzoyl]-1H-pyrrolo[2,3-b]pyridine]	5.65	9.12
CCN(C)S(=O)(=O)Nc1ccc(F)c(C(=O)c2c[nH]c3ncc(-c4ccc(N5CCN(C(=O)CN6CCC(c7ccc(OC8CCC(=O)NC8=O)cc7)CC6)CC5)nc4)cc23)c1F (stereo not shown) [Example A1, 5-[6-[4-[2-[4-[4-(2,6-Dioxopiperidin-3-yl)oxyphenyl]piperidin-1-yl]acetyl]piperazin-1-yl]pyridin-3-yl]-3-[3-[[ethyl(methyl)sulfamoyl]amino]-2,6-difluorobenzoyl]-1H-pyrrolo[2,3-b]pyridine]	17	13
CCN(C)S(=O)(=O)Nc1ccc(F)c(C(=O)c2c[nH]c3ncc(-c4ccc(N5CCN(C(=O)CCCN6CCC(c7ccc(OC8CCC(=O)NC8=O)cc7)CC6)CC5)nc4)cc23)c1F (stereo not shown) [Example A2, 5-[6-[4-[4-[4-[4-(2,6-Dioxopiperidin-3-yl)oxyphenyl]piperidin-1-yl]butanoyl]piperazin-1-yl]pyridin-3-yl]-3-[3-[[ethyl(methyl)sulfamoyl]amino]-2,6-difluorobenzoyl]-1H-pyrrolo[2,3-b]pyridine]	66	22
CCN(C)S(=O)(=O)Nc1ccc(F)c(C(=O)c2c[nH]c3ncc(-c4ccc(N5CCN(CC(=O)N6CCC(c7ccc(OC8CCC(=O)NC8=O)cc7)CC6)CC5)nc4)cc23)c1F (stereo not shown) [Example A3, 5-[6-[4-[2-[4-[4-(2,6-Dioxopiperidin-3-yl)oxyphenyl]piperidin-1-yl]-2-oxoethyl]piperazin-1-yl]pyridin-3-yl]-3-[3-[[ethyl(methyl)sulfamoyl]amino]-2,6-difluorobenzoyl]-1H-pyrrolo[2,3-b]pyridine]	46	19
CCN(C)S(=O)(=O)Nc1ccc(F)c(C(=O)c2c[nH]c3ncc(-c4ccc(CN5CCN(C(=O)N6CCN(c7ccc(OC8CCC(=O)NC8=O)cc7)CC6)CC5)cc4)cc23)c1F (stereo not shown) [Example A4, 5-[4-[[4-[4-[4-(2,6-Dioxopiperidin-3-yl)oxyphenyl]piperazine-1-carbonyl]piperazin-1-yl]methyl]phenyl]-3-[3-[[ethyl(methyl)sulfamoyl]amino]-2,6-difluorobenzoyl]-1H-pyrrolo[2,3-b]pyridine]	83	31
CCN(C)S(=O)(=O)Nc1ccc(F)c(C(=O)c2c[nH]c3ncc(-c4ccc(N5CCN(CCCC(=O)N6CCC(c7ccc(OC8CCC(=O)NC8=O)cc7)CC6)CC5)nc4)cc23)c1F (stereo not shown) [Example A5, 5-[6-[4-[4-[4-[4-(2,6-Dioxopiperidin-3-yl)oxyphenyl]piperidin-1-yl]-4-oxobutyl]piperazin-1-yl]pyridin-3-yl]-3-[3-[[ethyl(methyl)sulfamoyl]amino]-2,6-difluorobenzoyl]-1H-pyrrolo[2,3-b]pyridine]	104	34

Next, values leading:

DC50 [nM]	Emax [%]	Compound
11.3	9.3	CCN(C)S(=O)(=O)Nc1ccc(F)c(C(=O)c2c[nH]c3ncc(-c4cnc(N5CCN(C(=O)CC6(O)CCN(c7ccc(NC8CCC(=O)NC8=O)cc7F)CC6)CC5)c(S(C)(=O)=O)c4)cc23)c1F (stereo not shown) [Example 211, 5-[6-[4-[2-[1-[4-[(2,6-dioxo-3-piperidyl)amino]-2-fluoro-phenyl]-4-hydroxy-4-piperidyl]acetyl]piperazin-1-yl]-5-methylsulfonyl-3-pyridyl]-3-[3-[[ethyl(methyl)sulfamoyl]amino]-2,6-difluoro-benzoyl]-1H-pyrrolo[2,3-b]pyridine]
0.65	5.48	CCN(C)S(=O)(=O)Nc1ccc(F)c(C(=O)c2c[nH]c3ncc(-c4ccc(N5CCN(C(=O)CC6(O)CCN(c7ccc(N8CCC(=O)NC8=O)cc7Cl)CC6)CC5)nc4)cc23)c1F [Example 214, 5-[6-[4-[2-[1-[2-chloro-4-(2,4-dioxohexahydropyrimidin-1-yl)phenyl]-4-hydroxy-4-piperidyl]acetyl]piperazin-1-yl]-3-pyridyl]-3-[3-[[ethyl(methyl)sulfamoyl]amino]-2,6-difluoro-benzoyl]-1H-pyrrolo[2,3-b]pyridine]
2.71	7.87	CCN(C)S(=O)(=O)Nc1ccc(F)c(C(=O)c2c[nH]c3ncc(-c4ccc(N5CCN(C(=O)CC6(O)CCN(c7cc(F)c(N8CCC(=O)NC8=O)cc7Cl)CC6)CC5)nc4)cc23)c1F [Example 215, 5-[6-[4-[2-[1-[2-chloro-4-(2,4-dioxohexahydropyrimidin-1-yl)-5-fluoro-phenyl]-4-hydroxy-4-piperidyl]acetyl]piperazin-1-yl]-3-pyridyl]-3-[3-[[ethyl(methyl)sulfamoyl]amino]-2,6-difluoro-benzoyl]-1H-pyrrolo[2,3-b]pyridine]
1.33	7.4	CCN(C)S(=O)(=O)Nc1ccc(F)c(C(=O)c2c[nH]c3ncc(-c4cnc(N5CCN(C(=O)CC6(O)CCN(c7cc(F)c(N8CCC(=O)NC8=O)cc7Cl)CC6)CC5)nc4)cc23)c1F [Example 216, 5-[2-[4-[2-[1-[2-chloro-4-(2,4-dioxohexahydropyrimidin-1-yl)-5-fluoro-phenyl]-4-hydroxy-4-piperidyl]acetyl]piperazin-1-yl]pyrimidin-5-yl]-3-[3-[[ethyl(methyl)sulfamoyl]amino]-2,6-difluoro-benzoyl]-1H-pyrrolo[2,3-b]pyridine]
62.2	21	CN(C1CC1)S(=O)(=O)Nc1ccc(F)c(C(=O)c2c[nH]c3ncc(-c4ccc(N5CCN(C(=O)CC6(O)CCN(c7ccc(NC8CCC(=O)NC8=O)cc7F)CC6)CC5)nc4)cc23)c1F (stereo not shown) [Example 217, 3-[3-[[cyclopropyl(methyl)sulfamoyl]amino]-2,6-difluoro-benzoyl]-5-[6-[4-[2-[1-[4-[(2,6-dioxo-3-piperidyl)amino]-2-fluoro-phenyl]-4-hydroxy-4-piperidyl]acetyl]piperazin-1-yl]-3-pyridyl]-1H-pyrrolo[2,3-b]pyridine]
4.1	6.24	CCN(C)S(=O)(=O)Nc1ccc(F)c(C(=O)c2c[nH]c3ncc(-c4ccc(N5CCN(C(=O)CC6(O)CCN(c7cc(Cl)c(N8CCC(=O)NC8=O)cc7Cl)CC6)CC5)nc4)cc23)c1F [Example 218, 5-[6-[4-[2-[1-[2,5-dichloro-4-(2,4-dioxohexahydropyrimidin-1-yl)phenyl]-4-hydroxy-4-piperidyl]acetyl]piperazin-1-yl]-3-pyridyl]-3-[3-[[ethyl(methyl)sulfamoyl]amino]-2,6-difluoro-benzoyl]-1H-pyrrolo[2,3-b]pyridine]
1.65	6.11	CCN(C)S(=O)(=O)Nc1ccc(F)c(C(=O)c2c[nH]c3ncc(-c4ccc(N5CCN(C(=O)CC6(O)CCN(c7cc(Cl)c(N8CCC(=O)NC8=O)cc7F)CC6)CC5)nc4)cc23)c1F [Example 219, 5-[6-[4-[2-[1-[5-chloro-4-(2,4-dioxohexahydropyrimidin-1-yl)-2-fluoro-phenyl]-4-hydroxy-4-piperidyl]acetyl]piperazin-1-yl]-3-pyridyl]-3-[3-[[ethyl(methyl)sulfamoyl]amino]-2,6-difluoro-benzoyl]-1H-pyrrolo[2,3-b]pyridine]
